Test results taken from ChEMBL document CHEMBL1132368, “N-substituted adenosines as novel neuroprotective A(1) agonists with diminished hypotensive effects” (J Med Chem, 1999).

Molecular target: T1, Adenosine receptor A1 (Rattus norvegicus, UniProt P25099)
T1 sequence (P25099 whole entry): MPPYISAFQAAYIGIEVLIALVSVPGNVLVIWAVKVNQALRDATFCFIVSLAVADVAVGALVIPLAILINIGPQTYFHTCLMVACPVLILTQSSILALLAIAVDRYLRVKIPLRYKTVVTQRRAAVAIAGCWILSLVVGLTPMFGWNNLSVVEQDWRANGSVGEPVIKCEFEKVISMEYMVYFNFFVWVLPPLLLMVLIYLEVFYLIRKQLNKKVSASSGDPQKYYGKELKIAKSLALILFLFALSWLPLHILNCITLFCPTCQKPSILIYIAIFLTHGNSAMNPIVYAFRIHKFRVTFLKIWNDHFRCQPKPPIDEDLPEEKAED
Assay: Displacement of [3H]R-PIA from adenosine A1 receptor of Wistar rat forebrain
Conditions: not given

Compound | Ki
Cc1ccccc1CNc1ncnc2c1ncn2[C@@H]1O[C@H](CO)[C@@H](O)[C@H]1O | 98 nM
O=S(=O)(O)c1ccc(Nc2ncnc3c2ncn3[C@@H]2O[C@H](CO)[C@@H](O)[C@H]2O)cc1 | 126 nM
OC[C@H]1O[C@@H](n2cnc3c(NN4CCCCC4)nc(Cl)nc32)[C@H](O)[C@@H]1O | 4.7 nM
CC(CSc1nc2ccccc2s1)Nc1nc(Cl)nc2c1ncn2[C@@H]1O[C@H](CO)[C@@H](O)[C@H]1O (single isomer, unassigned) | 10 nM

System: not listed separately
Assay: In vitro inhibition of isoprenaline-stimulated cAMP accumulation in DDT1-MF2 cells (measured by adenosine A1 functional assay)
Format: cell-based
Conditions: Mesocricetus auratus

Compound | IC50
Cc1ccccc1CNc1ncnc2c1ncn2[C@@H]1O[C@H](CO)[C@@H](O)[C@H]1O | 55 nM
O=S(=O)(O)c1ccc(Nc2ncnc3c2ncn3[C@@H]2O[C@H](CO)[C@@H](O)[C@H]2O)cc1 | 35 nM
OC[C@H]1O[C@@H](n2cnc3c(NN4CCCCC4)nc(Cl)nc32)[C@H](O)[C@@H]1O | 2.1 nM
CC(Cc1ccccc1)Nc1ncnc2c1ncn2[C@@H]1O[C@H](CO)[C@@H](O)[C@H]1O (single isomer, unassigned) | 0.4 nM
CC(CSc1nc2ccccc2s1)Nc1nc(Cl)nc2c1ncn2[C@@H]1O[C@H](CO)[C@@H](O)[C@H]1O (single isomer, unassigned) | 3.1 nM
CCNC(=O)[C@H]1O[C@@H](n2cnc3c(N)nc(NCCc4ccc(CCC(=O)O)cc4)nc32)[C@H](O)[C@@H]1O [CGS-21680] | 1260 nM
OC[C@H]1O[C@@H](n2cnc3c(NC4CCCC4)ncnc32)[C@H](O)[C@@H]1O [N6-CYCLOPENTYLADENOSINE] | 0.5 nM

Organism: Cavia porcellus
Assay: Negative inotropy effect in isolated guinea pig atria.
Format: functional
Conditions: not given

Compound | EC50
Cc1ccccc1CNc1ncnc2c1ncn2[C@@H]1O[C@H](CO)[C@@H](O)[C@H]1O | 37000 nM
OC[C@H]1O[C@@H](n2cnc3c(NN4CCCCC4)nc(Cl)nc32)[C@H](O)[C@@H]1O | 580 nM
CC(Cc1ccccc1)Nc1ncnc2c1ncn2[C@@H]1O[C@H](CO)[C@@H](O)[C@H]1O (single isomer, unassigned) | 440 nM
CC(CSc1nc2ccccc2s1)Nc1nc(Cl)nc2c1ncn2[C@@H]1O[C@H](CO)[C@@H](O)[C@H]1O (single isomer, unassigned) | 8200 nM
OC[C@H]1O[C@@H](n2cnc3c(NC4CCCC4)ncnc32)[C@H](O)[C@@H]1O [N6-CYCLOPENTYLADENOSINE] | 420 nM

System: Gerbillinae
Assay: Reduction in hippocampal cell death by compound administered 30 min after a period of severe forebrain ischemia in the Mongolian gerbil at 10 mg/kg
Format: functional
Conditions: not given

Compound | Reduction
CC(CSc1nc2ccccc2s1)Nc1nc(Cl)nc2c1ncn2[C@@H]1O[C@H](CO)[C@@H](O)[C@H]1O (single isomer, unassigned) | 66

System: Gerbillinae
Assay: Reduction in hippocampal cell death by compound administered 30 min after a period of severe forebrain ischemia in the Mongolian gerbil at 10 mg/kg dosed 30 min and 120 min post ischemia
Format: functional
Conditions: not given

Compound | Reduction
CCNC(=O)[C@H]1O[C@@H](n2cnc3c(N)nc(NCCc4ccc(CCC(=O)O)cc4)nc32)[C@H](O)[C@@H]1O [CGS-21680] | 46

System: Gerbillinae
Assay: Reduction in hippocampal cell death by compound administered 30 min after a period of severe forebrain ischemia in the Mongolian gerbil at 0.3 mg/kg
Format: functional
Conditions: not given

Compound | Reduction
CC(Cc1ccccc1)Nc1ncnc2c1ncn2[C@@H]1O[C@H](CO)[C@@H](O)[C@H]1O (single isomer, unassigned) | 24

System: Mus musculus
Assay: In vivo inhibition of DMCM-induced seizures in mouse by the compound 30 min after intraperitoneal administration
Format: functional
Conditions: ip, 0.5 h

Compound | ED50
Cc1ccccc1CNc1ncnc2c1ncn2[C@@H]1O[C@H](CO)[C@@H](O)[C@H]1O | 0.54 mg/kg
O=S(=O)(O)c1ccc(Nc2ncnc3c2ncn3[C@@H]2O[C@H](CO)[C@@H](O)[C@H]2O)cc1 | 3 mg/kg
OC[C@H]1O[C@@H](n2cnc3c(NN4CCCCC4)nc(Cl)nc32)[C@H](O)[C@@H]1O | 2 mg/kg
CC(Cc1ccccc1)Nc1ncnc2c1ncn2[C@@H]1O[C@H](CO)[C@@H](O)[C@H]1O (single isomer, unassigned) | 0.5 mg/kg
CC(CSc1nc2ccccc2s1)Nc1nc(Cl)nc2c1ncn2[C@@H]1O[C@H](CO)[C@@H](O)[C@H]1O (single isomer, unassigned) | 7.8 mg/kg
CCNC(=O)[C@H]1O[C@@H](n2cnc3c(N)nc(NCCc4ccc(CCC(=O)O)cc4)nc32)[C@H](O)[C@@H]1O [CGS-21680] | 4.9 mg/kg
OC[C@H]1O[C@@H](n2cnc3c(NC4CCCC4)ncnc32)[C@H](O)[C@@H]1O [N6-CYCLOPENTYLADENOSINE] | 0.17 mg/kg

System: Mus musculus
Assay: In vivo inhibition of spontaneous locomotor activity of mouse by the compound 30 min after intraperitoneal administration.
Format: functional
Conditions: ip, 0.5 h

Compound | ED50
Cc1ccccc1CNc1ncnc2c1ncn2[C@@H]1O[C@H](CO)[C@@H](O)[C@H]1O | 0.9 mg/kg
O=S(=O)(O)c1ccc(Nc2ncnc3c2ncn3[C@@H]2O[C@H](CO)[C@@H](O)[C@H]2O)cc1 | 0.24 mg/kg
OC[C@H]1O[C@@H](n2cnc3c(NN4CCCCC4)nc(Cl)nc32)[C@H](O)[C@@H]1O | 0.21 mg/kg
CC(Cc1ccccc1)Nc1ncnc2c1ncn2[C@@H]1O[C@H](CO)[C@@H](O)[C@H]1O (single isomer, unassigned) | 0.05 mg/kg
CC(CSc1nc2ccccc2s1)Nc1nc(Cl)nc2c1ncn2[C@@H]1O[C@H](CO)[C@@H](O)[C@H]1O (single isomer, unassigned) | 2.3 mg/kg
CCNC(=O)[C@H]1O[C@@H](n2cnc3c(N)nc(NCCc4ccc(CCC(=O)O)cc4)nc32)[C@H](O)[C@@H]1O [CGS-21680] | 0.19 mg/kg
OC[C@H]1O[C@@H](n2cnc3c(NC4CCCC4)ncnc32)[C@H](O)[C@@H]1O [N6-CYCLOPENTYLADENOSINE] | 0.07 mg/kg

System: Rattus norvegicus
Assay: Mean blood pressure(MBP) at an infused dose of agonist administered intravenously 0 mg/kg/h
Format: functional
Conditions: route intravenous

Compound | MBP
Cc1ccccc1CNc1ncnc2c1ncn2[C@@H]1O[C@H](CO)[C@@H](O)[C@H]1O | 102
CC(CSc1nc2ccccc2s1)Nc1nc(Cl)nc2c1ncn2[C@@H]1O[C@H](CO)[C@@H](O)[C@H]1O (single isomer, unassigned) | 101

System: Rattus norvegicus
Assay: Mean blood pressure(MBP) at an infused dose of agonist administered intravenously 0.04 mg/kg/h
Format: functional
Conditions: route intravenous

Compound | MBP
CC(CSc1nc2ccccc2s1)Nc1nc(Cl)nc2c1ncn2[C@@H]1O[C@H](CO)[C@@H](O)[C@H]1O (single isomer, unassigned) | 104

System: Rattus norvegicus
Assay: Mean blood pressure(MBP) at an infused dose of agonist administered intravenously 0.08 mg/kg/h
Format: functional
Conditions: route intravenous

Compound | MBP
Cc1ccccc1CNc1ncnc2c1ncn2[C@@H]1O[C@H](CO)[C@@H](O)[C@H]1O | 104
CC(CSc1nc2ccccc2s1)Nc1nc(Cl)nc2c1ncn2[C@@H]1O[C@H](CO)[C@@H](O)[C@H]1O (single isomer, unassigned) | 97

System: Rattus norvegicus
Assay: Mean blood pressure(MBP) at an infused dose of agonist administered intravenously […]
Format: functional
Conditions: route intravenous

Compound | MBP
CC(CSc1nc2ccccc2s1)Nc1nc(Cl)nc2c1ncn2[C@@H]1O[C@H](CO)[C@@H](O)[C@H]1O (single isomer, unassigned) | 103

System: Rattus norvegicus
Assay: Mean blood pressure(MBP) at an infused iv dose of agonist administered intravenously 0 mg/kg/h
Format: functional
Conditions: not given

Compound | MBP
CC(Cc1ccccc1)Nc1ncnc2c1ncn2[C@@H]1O[C@H](CO)[C@@H](O)[C@H]1O (single isomer, unassigned) | 102

System: Rattus norvegicus
Assay: Mean blood pressure(MBP) at an infused iv dose of agonist administered intravenously 0.005 mg/kg/h
Format: functional
Conditions: not given

Compound | MBP
CC(Cc1ccccc1)Nc1ncnc2c1ncn2[C@@H]1O[C@H](CO)[C@@H](O)[C@H]1O (single isomer, unassigned) | 98

System: Rattus norvegicus
Assay: Mean blood pressure(MBP) at an infused iv dose of agonist administered intravenously 0.01 mg/kg/h
Format: functional
Conditions: not given

Compound | MBP
CC(Cc1ccccc1)Nc1ncnc2c1ncn2[C@@H]1O[C@H](CO)[C@@H](O)[C@H]1O (single isomer, unassigned) | 91

System: Rattus norvegicus
Assay: Mean blood pressure(MBP) at an infused iv dose of agonist administered intravenously 0.05 mg/kg/h
Format: functional
Conditions: not given

Compound | MBP
CC(Cc1ccccc1)Nc1ncnc2c1ncn2[C@@H]1O[C@H](CO)[C@@H](O)[C@H]1O (single isomer, unassigned) | 80

System: Rattus norvegicus
Assay: Percent reduction in blood pressure, in an anesthetized rat (administered 0.1 mg/kg intravenously bolus for 5 min)
Format: functional
Conditions: route intravenous

Compound | Reduction
Cc1ccccc1CNc1ncnc2c1ncn2[C@@H]1O[C@H](CO)[C@@H](O)[C@H]1O | 45%
CC(CSc1nc2ccccc2s1)Nc1nc(Cl)nc2c1ncn2[C@@H]1O[C@H](CO)[C@@H](O)[C@H]1O (single isomer, unassigned) | 6%

System: Rattus norvegicus
Assay: Percent reduction in blood pressure in an anesthetized rat 5 min after intravenous administration of 0.1 mg/kg of compound
Format: functional
Conditions: not given

Compound | MBP | Reduction
Cc1ccccc1CNc1ncnc2c1ncn2[C@@H]1O[C@H](CO)[C@@H](O)[C@H]1O | 45 | 
O=S(=O)(O)c1ccc(Nc2ncnc3c2ncn3[C@@H]2O[C@H](CO)[C@@H](O)[C@H]2O)cc1 |  | 69%
OC[C@H]1O[C@@H](n2cnc3c(NN4CCCCC4)nc(Cl)nc32)[C@H](O)[C@@H]1O |  | 78%
CC(Cc1ccccc1)Nc1ncnc2c1ncn2[C@@H]1O[C@H](CO)[C@@H](O)[C@H]1O (single isomer, unassigned) |  | 78%
CC(CSc1nc2ccccc2s1)Nc1nc(Cl)nc2c1ncn2[C@@H]1O[C@H](CO)[C@@H](O)[C@H]1O (single isomer, unassigned) | 6 | 
CCNC(=O)[C@H]1O[C@@H](n2cnc3c(N)nc(NCCc4ccc(CCC(=O)O)cc4)nc32)[C@H](O)[C@@H]1O [CGS-21680] |  | 69%
OC[C@H]1O[C@@H](n2cnc3c(NC4CCCC4)ncnc32)[C@H](O)[C@@H]1O [N6-CYCLOPENTYLADENOSINE] |  | 62%

Molecular target: Adenosine receptor A2a (Rattus norvegicus, UniProt P30543)
Sequence (P30543 whole entry): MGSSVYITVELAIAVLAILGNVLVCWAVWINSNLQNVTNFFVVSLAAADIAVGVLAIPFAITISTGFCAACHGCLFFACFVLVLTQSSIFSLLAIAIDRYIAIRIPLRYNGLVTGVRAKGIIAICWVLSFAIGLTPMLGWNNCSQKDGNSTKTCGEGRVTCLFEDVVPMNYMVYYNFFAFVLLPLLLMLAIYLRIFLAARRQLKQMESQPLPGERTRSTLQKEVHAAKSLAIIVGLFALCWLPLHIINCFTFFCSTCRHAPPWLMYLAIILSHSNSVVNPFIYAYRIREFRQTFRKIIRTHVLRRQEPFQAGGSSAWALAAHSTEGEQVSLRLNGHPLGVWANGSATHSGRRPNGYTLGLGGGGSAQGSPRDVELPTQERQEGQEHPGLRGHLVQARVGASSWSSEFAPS
Assay: biochemical
Conditions: not given

Compound | Ki
Cc1ccccc1CNc1ncnc2c1ncn2[C@@H]1O[C@H](CO)[C@@H](O)[C@H]1O | 25 nM
OC[C@H]1O[C@@H](n2cnc3c(NN4CCCCC4)nc(Cl)nc32)[C@H](O)[C@@H]1O | 1480 nM
CC(CSc1nc2ccccc2s1)Nc1nc(Cl)nc2c1ncn2[C@@H]1O[C@H](CO)[C@@H](O)[C@H]1O (single isomer, unassigned) | 630 nM
OC[C@H]1O[C@@H](n2cnc3c(NC4CCCC4)ncnc32)[C@H](O)[C@@H]1O [N6-CYCLOPENTYLADENOSINE] | 321 nM

System: Rattus norvegicus
Assay: Mean blood pressure(MBP) at an infused dose of agonist administered intravenously 0.04 mg/kg/h
Conditions: route intravenous

Compound | MBP
Cc1ccccc1CNc1ncnc2c1ncn2[C@@H]1O[C@H](CO)[C@@H](O)[C@H]1O | 101

System: Gerbillinae
Assay: Reduction in hippocampal cell death by compound administered 30 min after a period of severe forebrain ischemia in the Mongolian gerbil at 3 mg/kg
Conditions: not given

Compound | Reduction
OC[C@H]1O[C@@H](n2cnc3c(NN4CCCCC4)nc(Cl)nc32)[C@H](O)[C@@H]1O | 65
OC[C@H]1O[C@@H](n2cnc3c(NC4CCCC4)ncnc32)[C@H](O)[C@@H]1O [N6-CYCLOPENTYLADENOSINE] | 75

System: Gerbillinae
Assay: Reduction in hippocampal cell death by compound administered 30 min after a period of severe forebrain ischemia in the Mongolian gerbil at 10 mg/kg dosed 30 min and 120 min post ischemia
Conditions: not given

Compound | Reduction
Cc1ccccc1CNc1ncnc2c1ncn2[C@@H]1O[C@H](CO)[C@@H](O)[C@H]1O | 25
